In brackets after ≈: the same amount, converted by molar mass.
Key:
Format in all cases: functional
[1] = tested on: Staphylococcus aureus; assay: Antibacterial activity against methicillin-susceptible Staphylococcus aureus by microdilution broth method
[2] = tested on: Staphylococcus aureus; assay: Antibacterial activity against methicillin-resistant Staphylococcus aureus by microdilution broth method
[3] = tested on: Staphylococcus epidermidis; assay: Antibacterial activity against methicillin-susceptible Staphylococcus epidermidis by microdilution broth method
[4] = tested on: Staphylococcus epidermidis; assay: Antibacterial activity against methicillin-resistant Staphylococcus epidermidis by microdilution broth method
[5] = tested on: Enterococcus faecalis; assay: Antibacterial activity against Enterococcus faecalis by microdilution broth method
[6] = tested on: Streptococcus pneumoniae; assay: Antibacterial activity against penicillin-resistant Streptococcus pneumoniae by microdilution broth method
[7] = tested on: Staphylococcus aureus; assay: Antibacterial activity against methicillin-resistant Staphylococcus aureus BAA-42 infected po dosed KunMing mouse
[8] = tested on: Staphylococcus aureus; assay: Antibacterial activity against methicillin-susceptible Staphylococcus aureus 04-5 infected po dosed KunMing mouse
[9] = tested on: Staphylococcus epidermidis; assay: Antibacterial activity against methicillin-resistant Staphylococcus epidermidis 03427 infected po dosed KunMing mouse

Row | Structure (SMILES) | MIC [1] | MIC [2] | MIC [3] | MIC [4] | MIC [5] | MIC [6] | ED50 [7] | ED50 [8] | ED50 [9]
1 | O=C1O[C@@H](Cn2ccnn2)CN1c1ccc(N2CCN(S(=O)(=O)c3ccc(Cl)cc3)CC2)c(F)c1 | 0.125 µg/mL (≈ 0.24 µM) | 0.5 µg/mL (≈ 0.96 µM) | 0.5 µg/mL (≈ 0.96 µM) | 0.5 µg/mL (≈ 0.96 µM) | 0.25 µg/mL (≈ 0.48 µM) | 0.125 µg/mL (≈ 0.24 µM) | – | – | –
2 | CC(=O)NC[C@H]1CN(c2ccc(N3CCOCC3)c(F)c2)C(=O)O1 [LINEZOLID] | 0.125 µg/mL (≈ 0.371 µM) | 1 µg/mL (≈ 2.96 µM) | 1 µg/mL (≈ 2.96 µM) | 0.5 µg/mL (≈ 1.48 µM) | 0.25 µg/mL (≈ 0.741 µM) | 0.25 µg/mL (≈ 0.741 µM) | 17.9 mg/kg | 24 mg/kg | 84.8 mg/kg
3 | O=C1O[C@@H](Cn2ccnn2)CN1c1ccc(N2CCN(S(=O)(=O)c3ccccc3)CC2)c(F)c1 | 1 µg/mL (≈ 2.06 µM) | 1 µg/mL (≈ 2.06 µM) | 0.5 µg/mL (≈ 1.03 µM) | 2 µg/mL (≈ 4.11 µM) | 2 µg/mL (≈ 4.11 µM) | 1 µg/mL (≈ 2.06 µM) | – | – | –
4 | Nc1cccc(S(=O)(=O)N2CCN(c3ccc(N4C[C@H](Cn5ccnn5)OC4=O)cc3F)CC2)c1 | 0.125 µg/mL (≈ 0.249 µM) | 0.25 µg/mL (≈ 0.498 µM) | 0.5 µg/mL (≈ 0.997 µM) | 1 µg/mL (≈ 1.99 µM) | 0.25 µg/mL (≈ 0.498 µM) | 0.5 µg/mL (≈ 0.997 µM) | – | > 100 mg/kg | > 100 mg/kg
5 | COc1ccc(S(=O)(=O)N2CCN(c3ccc(N4C[C@H](Cn5ccnn5)OC4=O)cc3F)CC2)cc1 | 1 µg/mL (≈ 1.94 µM) | 0.5 µg/mL (≈ 0.968 µM) | 2 µg/mL (≈ 3.87 µM) | 2 µg/mL (≈ 3.87 µM) | 2 µg/mL (≈ 3.87 µM) | 0.5 µg/mL (≈ 0.968 µM) | – | – | –
6 | O=C1O[C@@H](Cn2ccnn2)CN1c1ccc(N2CCN(S(=O)(=O)c3cccc(C(F)(F)F)c3)CC2)c(F)c1 | 0.06 µg/mL (≈ 0.108 µM) | 0.06 µg/mL (≈ 0.108 µM) | 0.06 µg/mL (≈ 0.108 µM) | 0.5 µg/mL (≈ 0.902 µM) | 0.03 µg/mL (≈ 0.0541 µM) | 0.015 µg/mL (≈ 0.0271 µM) | – | – | –
7 | Cc1ccc(S(=O)(=O)N2CCN(c3ccc(N4C[C@H](Cn5ccnn5)OC4=O)cc3F)CC2)cc1 | 1 µg/mL (≈ 2 µM) | 1 µg/mL (≈ 2 µM) | 0.5 µg/mL (≈ 0.999 µM) | 2 µg/mL (≈ 4 µM) | 2 µg/mL (≈ 4 µM) | 1 µg/mL (≈ 2 µM) | – | – | –
8 | CN[C@H](CC(C)C)C(=O)N[C@H]1C(=O)N[C@@H](CC(N)=O)C(=O)N[C@H]2C(=O)N[C@H]3C(=O)N[C@H](C(=O)N[C@H](C(=O)O)c4cc(O)cc(O)c4-c4cc3ccc4O)[C@H](O)c3ccc(c(Cl)c3)Oc3cc2cc(c3O[C@@H]2O[C@H](CO)[C@@H](O)[C@H](O)[C@H]2O[C@H]2C[C@](C)(N)[C@H](O)[C@H](C)O2)Oc2ccc(cc2Cl)[C@H]1O [VANCOMYCIN] | 0.25 µg/mL (≈ 0.173 µM) | – | 0.5 µg/mL (≈ 0.345 µM) | 0.25 µg/mL (≈ 0.173 µM) | 0.25 µg/mL (≈ 0.173 µM) | 0.25 µg/mL (≈ 0.173 µM) | – | – | –
9 | O=C1O[C@@H](Cn2ccnn2)CN1c1ccc(N2CCN(S(=O)(=O)c3ccc(C(F)(F)F)cc3)CC2)c(F)c1 | 0.5 µg/mL (≈ 0.902 µM) | 1 µg/mL (≈ 1.8 µM) | 0.5 µg/mL (≈ 0.902 µM) | 1 µg/mL (≈ 1.8 µM) | 0.5 µg/mL (≈ 0.902 µM) | 0.5 µg/mL (≈ 0.902 µM) | – | – | –
10 | O=C1O[C@@H](Cn2ccnn2)CN1c1ccc(N2CCN(S(=O)(=O)c3cccc([N+](=O)[O-])c3)CC2)c(F)c1 | 0.06 µg/mL (≈ 0.113 µM) | 0.06 µg/mL (≈ 0.113 µM) | 0.06 µg/mL (≈ 0.113 µM) | 0.5 µg/mL (≈ 0.941 µM) | 0.03 µg/mL (≈ 0.0564 µM) | 0.015 µg/mL (≈ 0.0282 µM) | > 100 mg/kg | 55.1 mg/kg | 84.3 mg/kg
11 | O=C1O[C@@H](Cn2ccnn2)CN1c1ccc(N2CCNCC2)c(F)c1 | 1 µg/mL (≈ 2.89 µM) | 1 µg/mL (≈ 2.89 µM) | 1 µg/mL (≈ 2.89 µM) | 1 µg/mL (≈ 2.89 µM) | 2 µg/mL (≈ 5.77 µM) | 1 µg/mL (≈ 2.89 µM) | – | – | –
12 | O=C1O[C@@H](Cn2ccnn2)CN1c1ccc(N2CCN(S(=O)(=O)c3ccc(F)cc3)CC2)c(F)c1 | 0.5 µg/mL (≈ 0.991 µM) | 1 µg/mL (≈ 1.98 µM) | 0.5 µg/mL (≈ 0.991 µM) | 1 µg/mL (≈ 1.98 µM) | 1 µg/mL (≈ 1.98 µM) | 0.5 µg/mL (≈ 0.991 µM) | – | – | –
13 | O=C1O[C@@H](Cn2ccnn2)CN1c1ccc(N2CCN(S(=O)(=O)c3ccccc3[N+](=O)[O-])CC2)c(F)c1 | 0.5 µg/mL (≈ 0.941 µM) | 1 µg/mL (≈ 1.88 µM) | 0.5 µg/mL (≈ 0.941 µM) | 1 µg/mL (≈ 1.88 µM) | 0.5 µg/mL (≈ 0.941 µM) | 0.5 µg/mL (≈ 0.941 µM) | – | – | –
14 | O=C1O[C@@H](Cn2ccnn2)CN1c1ccc(N2CCN(S(=O)(=O)c3ccc([N+](=O)[O-])cc3)CC2)c(F)c1 | 1 µg/mL (≈ 1.88 µM) | 1 µg/mL (≈ 1.88 µM) | 1 µg/mL (≈ 1.88 µM) | 1 µg/mL (≈ 1.88 µM) | 1 µg/mL (≈ 1.88 µM) | 0.5 µg/mL (≈ 0.941 µM) | – | – | –
15 | O=C1O[C@@H](Cn2ccnn2)CN1c1ccc(N2CCN(S(=O)(=O)c3cccc(F)c3)CC2)c(F)c1 | 0.001 µg/mL (≈ 0.00198 µM) | 0.25 µg/mL (≈ 0.496 µM) | 0.25 µg/mL (≈ 0.496 µM) | 1 µg/mL (≈ 1.98 µM) | 0.004 µg/mL (≈ 0.00793 µM) | 0.002 µg/mL (≈ 0.00396 µM) | > 100 mg/kg | 55.1 mg/kg | > 100 mg/kg
16 | O=C1O[C@@H](Cn2ccnn2)CN1c1ccc(N2CCN(S(=O)(=O)c3ccc(Br)cc3)CC2)c(F)c1 | 4 µg/mL (≈ 7.07 µM) | 8 µg/mL (≈ 14.1 µM) | 8 µg/mL (≈ 14.1 µM) | 4 µg/mL (≈ 7.07 µM) | 2 µg/mL (≈ 3.54 µM) | 2 µg/mL (≈ 3.54 µM) | – | – | –
17 | O=C1O[C@@H](Cn2ccnn2)CN1c1ccc(N2CCN(S(=O)(=O)c3ccc(F)cc3F)CC2)c(F)c1 | 2 µg/mL (≈ 3.83 µM) | 2 µg/mL (≈ 3.83 µM) | 1 µg/mL (≈ 1.91 µM) | 1 µg/mL (≈ 1.91 µM) | 2 µg/mL (≈ 3.83 µM) | 2 µg/mL (≈ 3.83 µM) | – | – | –
18 | O=C(OCc1ccccc1)N1CCN(c2ccc(N3C[C@H](Cn4ccnn4)OC3=O)cc2F)CC1 | 0.25 µg/mL (≈ 0.52 µM) | 0.5 µg/mL (≈ 1.04 µM) | 1 µg/mL (≈ 2.08 µM) | 0.5 µg/mL (≈ 1.04 µM) | 0.5 µg/mL (≈ 1.04 µM) | 0.5 µg/mL (≈ 1.04 µM) | – | – | –
19 | O=C1O[C@@H](Cn2ccnn2)CN1c1ccc(N2CCN(S(=O)(=O)c3cccs3)CC2)c(F)c1 | 1 µg/mL (≈ 2.03 µM) | 1 µg/mL (≈ 2.03 µM) | 1 µg/mL (≈ 2.03 µM) | 1 µg/mL (≈ 2.03 µM) | 1 µg/mL (≈ 2.03 µM) | 1 µg/mL (≈ 2.03 µM) | – | – | –
20 | O=C1O[C@@H](Cn2ccnn2)CN1c1ccc(N2CCN(S(=O)(=O)c3ccccc3C(F)(F)F)CC2)c(F)c1 | 1 µg/mL (≈ 1.8 µM) | 0.5 µg/mL (≈ 0.902 µM) | 2 µg/mL (≈ 3.61 µM) | 2 µg/mL (≈ 3.61 µM) | 2 µg/mL (≈ 3.61 µM) | 0.5 µg/mL (≈ 0.902 µM) | – | – | –
21 | N#Cc1ccc(S(=O)(=O)N2CCN(c3ccc(N4C[C@H](Cn5ccnn5)OC4=O)cc3F)CC2)cc1 | 2 µg/mL (≈ 3.91 µM) | 0.5 µg/mL (≈ 0.977 µM) | 2 µg/mL (≈ 3.91 µM) | 2 µg/mL (≈ 3.91 µM) | 4 µg/mL (≈ 7.82 µM) | 4 µg/mL (≈ 7.82 µM) | – | – | –

Source: ChEMBL document CHEMBL1147903, “Synthesis and antibacterial activity of oxazolidinones containing triazolyl group” (2007)
